One test has as its target T1, human GPR39 receptor (Homo sapiens, UniProt O43194).
T1 construct: PC3 Cells, Expressing the Endogenous Human GPR39 Receptor; endogenous in cells; host or cells: PC3 (human prostate adenocarcinoma) cells
T1 sequence (O43194 1-453): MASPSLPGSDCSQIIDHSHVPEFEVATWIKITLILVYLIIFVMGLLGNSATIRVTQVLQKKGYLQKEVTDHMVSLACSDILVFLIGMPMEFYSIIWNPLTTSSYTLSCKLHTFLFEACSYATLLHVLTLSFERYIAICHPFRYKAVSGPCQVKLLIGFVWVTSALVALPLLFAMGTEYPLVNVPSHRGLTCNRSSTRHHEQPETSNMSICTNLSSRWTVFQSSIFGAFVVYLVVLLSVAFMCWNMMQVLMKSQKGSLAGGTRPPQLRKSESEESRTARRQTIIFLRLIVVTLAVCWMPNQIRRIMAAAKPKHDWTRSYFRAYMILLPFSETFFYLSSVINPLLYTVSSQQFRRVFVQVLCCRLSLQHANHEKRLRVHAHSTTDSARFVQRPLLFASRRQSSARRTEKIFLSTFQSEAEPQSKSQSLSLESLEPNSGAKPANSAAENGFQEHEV
Briefly: Measurement of intracellular calcium response in PC3 cells (FLIPR), antagonism of the C3 agonist response. Format: cell-based. The conditions noted are these: functional pKi (modified Cheng-Prusoff), inhibition of the C3 (TC-G 1008) response at EC90, 30 μM ZnCl2, read-out: fpKi activity. The method, boiled down: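 Potency was reported as fpKi, converted by modified Cheng-Prusoff from four-parameter IC50 fits against an EC90 C3 agonist challenge. Calcium-6 FLIPR readings used PC3 cells naturally expressing human GPR39, in pH 7.4 HEPES buffer containing 30 μM final ZnCl2. Score bands: +/± <5.2, + 5.2–5.9, ++ 6.0–6.5, +++ 6.6–7.2, ++++ ≥7.3.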

In test [1] the test system is spontaneously hypertensive rat (SHR). Briefly: Acute intravenous effect on blood pressure in the spontaneously hypertensive rat. It is filed as in vivo. The conditions noted are these: for BP reduction, percentage of pre-administration baseline: lowest value over 10 min, isoflurane anaesthesia. Here is the method:
Decrease in BP was expressed as a percentage of baseline BP (*p<0.05).
The effect of acute intravenous administration of EXAMPLE 34 on BP in the spontaneously hypertensive rat (SHR) was determined. […] At 10 mg/kg, BP was reduced by 15%, and at 25 mg/kg, the reduction exceeded 20% of pre-administration baseline. EXAMPLE 34 was administered slowly via bolus injections through the jugular vein in a vehicle consisting of 100% PEG 400, and the change in BP after administration (lowest value over 10 min) was normalized to pre-administration baseline. This was the first proof of principle that pharmacological inhibition of GPR39 reduced BP acutely in a well-established animal model of hypertension.

For test [2], the system named is wild-type mice, left coronary artery occlusion/reperfusion. Briefly: Infarct size after left coronary artery occlusion and reperfusion in mice. Format: in vivo, mouse. As to conditions: WT mice, single dose 15 min after occlusion, 45 min occlusion, 2 hr reperfusion, versus vehicle. Here is the method: FIG. 3A depicts the timeline of experimental design. EXAMPLE 34 was given 15 min after left coronary occlusion as a single dose during a 45 min occlusion followed by 2 hr of reperfusion.
Infarct size in both FIG. 3C and FIG. 3D is expressed as a percent of AAR defined by Evans Blue. Summary data are depicted to the right of actual images from single representative animals.
The role of pericytes in tissue necrosis following coronary occlusion was examined (FIG. 3A).

The test system is the same in test [3]. Put plainly: No reflow after coronary occlusion and reperfusion in mice (Thioflavin S / Evans Blue). Format: in vivo, mouse. The conditions noted are these: WT mice, 1.5 mg/kg i.v. 15 min after occlusion, 45 min occlusion, 2 hr reperfusion, versus vehicle. Here is the method:
FIGS. 4A-4D depict no reflow data from WT, GPR39 KO, and EXAMPLE 34 mice. Thioflavin-S and Evans Blue were injected ante-mortem and measurement of no reflow (area without Evans Blue on the right panel). […] EXAMPLE 34 was given 15 min after coronary occlusion which lasted a total of 45 min followed by 2 hour reperfusion. The role of pericytes was examined in no reflow after reperfusion in a separate group of animals since infarct size and no reflow post-mortem cciuid not be measured in the same animals, Thioflavin S, a perfusion marker, was injected into the left coronary artery after reperfusion. Thereafter, the left coronary artery was briefly re-occluded and 0.2 ml Evan's blue (1%) injected. The heart was then excised, transversely sliced into 5-6 pieces and photographed under UV light (under which Thioflavin S fluoresces blue) to identify the area of no reflow and under standard lighting to identify the AAR, and the no reflow zone expressed as a percent of the AAR.

Entries after “also recorded” stand apart in the source; their conditions may differ.

As to `O=C(Nc1ccc(C(=O)N2CCN(c3ncnc4ccsc34)CC2)c(N2CCCCCC2)c1)C1CC1` [EXAMPLE 34, N-[3-(azepan-1-yl)-4-(4-thieno[3,2-d]pyrimidin-4-ylpiperazine-1-carbonyl)phenyl]Cyclopropanecarboxamide], the Ki at human GPR39 receptor lay in the range of 1260 to 6310 nM. Also, the “BP reduction, percentage of pre-administration baseline” value is 15% in test [1] (10 mg/kg i.v. bolus) and “exceeded 20%” in test [1] (25 mg/kg i.v. bolus). Also, the “Effect on BP in SHR” value in test [1] (i.v., concentrations higher than 10 mg/kg) is reported as “significantly reduced BP”. In test [2], the “Infarct size/area at risk (AAR) ratio” value is “significantly smaller; also recorded: significant reduction in infarct size”. Further, the “No reflow zone / AAR ratio” value in test [3] was “negligible no reflow zones; also recorded: significant reduction in no reflow/AAR ratio”.
For `CN1CCN(C(=O)c2ccc(-c3nnc(C4CC4)[nH]3)cc2N2CCCC2)C(c2ccccc2)C1` (single isomer, unassigned) [Example 151b, (2R or 2S) [4-(5-cyclopropyl-4H-1,2,4-triazol-3-yl)-2-pyrrolidin-1-ylphenyl]-(4-methyl-2-phenylpiperazin-1-yl)methanone], the Ki on human GPR39 receptor fell in the range of 1260 to 6310 nM.
On to `CCCN1CCN(C(=O)c2ccc(NC(=O)C3CC3)cc2N2CCC(C)(C)CC2)CC1` [Example 17, N-(3-(4,4-dimethylpiperidin-1-yl)-4-(4-propylpiperazine-1-carbonyl)phenyl)cyclopropanecarboxamide], for which, at human GPR39 receptor, the Ki was in the range of 63.1 to 251 nM.
For the molecule `O=C(Nc1ccc(C(=O)N2CCS(=O)(=O)CC2)c(N2CCC(C(F)(F)F)C2)c1)C1CC1` (single isomer, unassigned) [Example 183b, N-[4-(1,1-dioxo-1,4-thiazinane-4-carbonyl)-3-[3R or 3S-(trifluoromethyl)pyrrolidin-1-yl]phenyl]cyclopropanecarboxamide], the Ki at human GPR39 receptor was 63.1 to 251 nM.
Still for that read-out and setting: the figure for `O=C(Nc1ccc(C(=O)N2CCS(=O)(=O)CC2)c(N2CCC(F)(F)C2)c1)C1CC1` [Example 184, N-[3-(3,3-difluoropyrrolidin-1-yl)-4-(1,1-dioxo-1,4-thiazinane-4-carbonyl)phenyl]cyclopropanecarboxamide] is 63.1 to 251 nM; for `CN1CCN(C(=O)c2ccc(NC(=O)C3CC3)nc2N2CCCC2)C(c2ccccc2)C1` (racemic) [Example 149c, N-[45-(4-methyl-2-phenylpiperazine-1-carbonyl)-6-pyrrolidin-1-ylpyridin-2-yl]cyclopropanecarboxamide] it is 63.1 to 251 nM; for `CN1CCN(C(=O)c2ccc(NC(=O)C3CC3)cc2N2CCCC2)C(c2cccnc2)C1` (racemic) [Example 173, N-[4-(4-methyl-2-pyridin-3-ylpiperazine-1-carbonyl)-3-pyrrolidin-1-ylphenyl]cyclopropanecarboxamide] it is 316 to 1000 nM.
As to `O=C(Nc1ccc(C(=O)N2CCN3CCCC3C2)c(N2CCCCCC2)c1)C1CC1` (centres unmarked) [Example 40, N-[3-(azepan-1-yl)-4-{octahydropyrrolo[1,2-a]pyrazine-2-carbonyl}phenyl] Cyclopropanecarboxamide], at human GPR39 receptor, the Ki is 316 to 1000 nM.
Regarding `Cn1c(Sc2ccccn2)nnc1-c1ccc(NC(=O)C2CC2)cc1N1CCCC1` [Example 116, N-[4-(4-methyl-5-pyridin-2-ylsulfanyl-1,2,4-triazol-3-yl)-3-pyrrolidin-1-ylphenyl]cyclopropanecarboxamide], on human GPR39 receptor, the Ki lay within 1260 to 6310 nM.
Same read-out and setting: in the case of `Cn1c(Sc2ccccc2)nnc1-c1ccc(NC(=O)C2CC2)cc1N1CCCCCC1` [Example 110, N-[3-(azepan-1-yl)-4-(4-methyl-5-phenylsulfanyl-1,2,4-triazol-3-yl)phenyl]cyclopropanecarboxamide] it was 63.1 to 251 nM.
On to `O=C(Nc1ccc(C(=O)N2CCS(=O)(=O)CC2)c(N2CCC(F)(F)CC2)c1)C1CC1` [Example 196, N-[3-(4,4-difluoropiperidin-1-yl)-4-(1,1-dioxo-1,4-thiazinane-4-carbonyl)phenyl]cyclopropanecarboxamide], for which, on human GPR39 receptor, the Ki was 1260 to 6310 nM.
Turning to `O=C(Nc1ccc(C(=O)N2CCC3(CC2)COC3)c(N2CCC(C(F)(F)F)C2)c1)C1CC1` (single isomer, unassigned) [Example 213b], the Ki on human GPR39 receptor is 63.1 to 251 nM.
Consider `Cc1nnc(-c2ccc(C(=O)N3CCC4(CC3)CC4)c(-n3ccc(C(F)(F)F)n3)c2)[nH]1` [Example 214, 6-azaspiro[2.5]octan-6-yl-[4-(5-methyl-4H-1,2,4-triazol-3-yl)-2-[3-(trifluoromethyl)pyrazol-1-yl]phenyl]methanone], for which the Ki on human GPR39 receptor was at most 50.1 nM.
In the case of `CN1CCN(c2ccc(CNC(=O)c3ccc(NC(=O)C4CC4)cc3N3CCCCCC3)cc2)CC1` [Example 56, 2-(azepan-1-yl)-4-(cyclopropanecarbonylamino)-N-[[4-(4-methylpiperazin-1-yl)phenyl]methyl]benzamide], the Ki on human GPR39 receptor lay in the range of 1260 to 6310 nM.
Still for that read-out and setting: in the case of `O=C(Nc1ccc(C(=O)N2CCS(=O)(=O)CC2)c(N2CCCC(C(F)(F)F)C2)c1)C1CC1` (single isomer, unassigned) [Example 185b, N-[4-(1,1-dioxo-1,4-thiazinane-4-carbonyl)-3-[3R or 3S-(trifluoromethyl)piperidin-1-yl]phenyl]cyclopropanecarboxamide] it was at most 50.1 nM.

The values are drawn from patent publication US20230174484A1, “ANTAGONISTS OF GPR39 PROTEIN” (Oregon Health & Science University, priority 2020, published 2023).
